How the values were obtained:
Assay in all cases: relative viability (nuclei count vs DMSO), 5 days (fraction); higher = more cells survive
ABC-1 = system: ABC-1
Outline: (§1)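 Nuclei were stained with Hoechst during a one-step fixation (final 0.05% Triton X-100, 1% formaldehyde, 1 ug/ml Hoechst) carried out 5 days after dosing, then counted on 4× images. The cells, lung cancer lines in 1536-well plates, had been dosed by pin tool the day after seeding with one drug alone or a fixed anchor-drug dose plus five library-drug doses (not always all listed) in √10 steps. Relative viability is the nuclei count in treated wells divided by that in vehicle wells, and each value is the median of duplicate plates.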

COR-L23 = system: COR-L23
Outline: as §1

ChaGo-K-1 = system: ChaGo-K-1
Outline: as §1

EMC-BAC-2 = system: EMC-BAC-2
Outline: as §1

HARA = system: HARA
Outline: as §1

HCC-15 = system: HCC-15
Outline: as §1

HCC-366 = system: HCC-366
Outline: as §1

HCC-78 = system: HCC-78
Outline: as §1

HOP-62 = system: HOP-62
Outline: as §1

LC-2-ad = system: LC-2-ad
Outline: as §1

NCI-H1395 = system: NCI-H1395
Outline: as §1

NCI-H1793 = conditions: first compound 0.01 µM
Outline: as §1

In the case of `CCN(CC)CCCCNc1ncc2cc(-c3cc(OC)cc(OC)c3)c(NC(=O)NC(C)(C)C)nc2n1` + CC(=O)c1c(C)c2cnc(Nc3ccc(N4CCNCC4)cn3)nc2n(C2CCCC2)c1=O [Palbociclib] (partner 0.5 µM), the relative viability (ABC-1; first compound 0.03162 µM) is reported as 0.968, the relative viability (ABC-1; first compound 0.1 µM) is reported as 0.724 and the relative viability (ABC-1; first compound 0.3162 µM) is reported as 0.832. The relative viability (ABC-1; first compound 1 µM) was 0.574, the relative viability (COR-L23; first compound 0.01 µM) was 0.291 and the relative viability (COR-L23; first compound 0.03162 µM) was 0.343. It also gave a relative viability (COR-L23; first compound 0.1 µM) of 0.341, a relative viability (COR-L23; first compound 0.3162 µM) of 0.312 and a relative viability (COR-L23; first compound 1 µM) of 0.248. For the same molecule, the relative viability (ChaGo-K-1; first compound 0.01 µM) was 0.98, the relative viability (ChaGo-K-1; first compound 0.03162 µM) was 0.915 and the relative viability (ChaGo-K-1; first compound 0.1 µM) was 1.08. It also gave a relative viability (ChaGo-K-1; first compound 0.3162 µM) of 0.997, a relative viability (ChaGo-K-1; first compound 1 µM) of 0.823 and a relative viability (EMC-BAC-2; first compound 0.03162 µM) of 0.501. It also gave a relative viability (EMC-BAC-2; first compound 0.1 µM) of 0.525, a relative viability (EMC-BAC-2; first compound 0.3162 µM) of 0.536 and a relative viability (EMC-BAC-2; first compound 1 µM) of 0.527. It also gave a relative viability (HARA; first compound 0.01 µM) of 0.228, a relative viability (HARA; first compound 0.03162 µM) of 0.243 and a relative viability (HARA; first compound 0.1 µM) of 0.306. For the same molecule, the relative viability (HARA; first compound 0.3162 µM) was 0.223, the relative viability (HARA; first compound 1 µM) was 0.269 and the relative viability (HCC-15; first compound 0.01 µM) was 0.82. The relative viability (HCC-15; first compound 0.03162 µM) was 0.826, the relative viability (HCC-15; first compound 0.1 µM) was 0.826 and the relative viability (HCC-15; first compound 0.3162 µM) was 0.797. For the same molecule, the relative viability (HCC-15; first compound 1 µM) was 0.729, the relative viability (HCC-366; first compound 0.01 µM) was 0.364 and the relative viability (HCC-366; first compound 0.03162 µM) was 0.406. The relative viability (HCC-366; first compound 0.1 µM) was 0.504, the relative viability (HCC-366; first compound 0.3162 µM) was 0.438 and the relative viability (HCC-366; first compound 1 µM) was 0.441. The relative viability (HCC-78; first compound 0.01 µM) was 0.465, the relative viability (HCC-78; first compound 0.03162 µM) was 0.448 and the relative viability (HCC-78; first compound 0.1 µM) was 0.525. It also gave a relative viability (HCC-78; first compound 0.3162 µM) of 0.45, a relative viability (HCC-78; first compound 1 µM) of 0.465 and a relative viability (HOP-62; first compound 0.01 µM) of 0.463. For the same molecule, the relative viability (HOP-62; first compound 0.03162 µM) was 0.455, the relative viability (HOP-62; first compound 0.1 µM) was 0.481 and the relative viability (HOP-62; first compound 0.3162 µM) was 0.425. It also gave a relative viability (HOP-62; first compound 1 µM) of 0.45, a relative viability (LC-2-ad; first compound 0.01 µM) of 0.503 and a relative viability (LC-2-ad; first compound 0.03162 µM) of 0.486. It also gave a relative viability (LC-2-ad; first compound 0.1 µM) of 0.491, a relative viability (LC-2-ad; first compound 0.3162 µM) of 0.589 and a relative viability (LC-2-ad; first compound 1 µM) of 0.473. The relative viability (NCI-H1395; first compound 0.01 µM) was 0.637, the relative viability (NCI-H1395; first compound 0.03162 µM) was 0.59 and the relative viability (NCI-H1395; first compound 0.1 µM) was 0.661. For the same molecule, the relative viability (NCI-H1395; first compound 0.3162 µM) was 0.546, the relative viability (NCI-H1395; first compound 1 µM) was 0.448 and the relative viability (NCI-H1793) was 0.288.
